The values below come from publication PMC8992272, “Stabilities of Three Key Biological Trisulfides with Implications for Their Roles in the Release of Hydrogen Sulfide and Bioaccumulation of Sulfane Sulfur” (ACS Omega, 2022).

Broadly, the half-life is the time needed for the level to fall by half in the phase considered.

Holding throughout (type): physicochemical
Data set [1] in a line: Degradation in the presence of butylamine under biologically relevant conditions (37 °C, pH 7.4). Conditions: pH 7.4 D2O; for degraded: 10 mM. On the procedure:
To investigate how amines degrade polysulfides in the body, NAC trisulfide was dissolved in pH 7.4 in D2O at a concentration of 10 mM. […] Butylamine was added and the reaction was maintained at body temperature (37 °C). Degradation was tracked using ^1H NMR spectroscopy (Figure 8).
N-Acetylcysteine trisulfide (14.4 mg, 36 μmol) was dissolved in 3.6 mL of D2O buffered to pH 7.4. Butylamine (11 μL, 110 μmol) was added and the contents were heated to 37 °C. The ^1H NMR spectra were taken periodically to track degradation.

Data set [2] is described as follows: Stability in water/D2O buffered at different pH values, tracked by 1H NMR. From the text:
The ^1H NMR spectra of NAC and the disulfide, trisulfide, and tetrasulfide of NAC had peaks at unique values for chemical shifts and allowed for their easy characterization (Figure 3). Pure chemicals of each sulfide were synthesized and characterized by ^1H and ^13C NMR spectroscopy as well as by high-resolution mass spectroscopy. The unique chemical shifts of the peaks for the Ha and Hb/Hc protons on the sulfides allowed the integration of each sulfide to be determined.
The stability of NAC trisulfide in water buffered at pH values of 5.8, 7.4, and 9.0 was measured.
The stability of cysteine trisulfide was investigated in buffered water at pH values of 5.8, 7.0, and 9.0. […] At pH values of 5.8, 7.0, and 9.0, the cysteine trisulfide was soluble and its ^1H NMR spectra were obtained.
The stability of glutathione trisulfide was investigated at pH values of 5.8, 7.4, and 9.0 (Figure S14a). The degradation of glutathione trisulfide was more rapid at pH values of 5.8 and 7.4 than that of the trisulfides of NAC and cysteine. At an acidic pH of 5.8, 71% of glutathione trisulfide degraded after 10 days. At pH values of 7.4 and 9.0, glutathione trisulfide degraded 79 and 81%, respectively, at day 9. […] The degradation of glutathione trisulfide reached an equilibrium of approximately 20% with the disulfide due to the reaction catalyzed by amine with elemental sulfur. Rate constants and half-lives were obtained for the degradation of glutathione trisulfide at each pH value using early data points unaffected by the equilibrium. At pH values of 5.8, 7.4, and 9.0, the estimated half-lives were 6.3 days (151 h), 0.90 days (21.6 h), and 0.79 days (19.0 h), respectively (Figure S14b).
The stability of NAC tetrasulfide was investigated in D2O buffered at pH values of 5.8, 7.4, and 9.0 (Figure S16a). At a pH of 5.8, NAC tetrasulfide degraded by 13% after 9 days. At pH values of 7.4 and 9.0, the tetrasulfide degraded by 55 and 52%, respectively, after 9 days. At each pH, the degradation product was NAC trisulfide, elemental sulfur, and a small amount of NAC disulfide (<3%). […] Estimated rate constants and half-lives for the degradation of NAC tetrasulfide at each pH were obtained. At pH values of 5.8, 7.4, and 9.0, the estimated half-lives were 53.3, 7.5, and 8.2 days, respectively (Figure S16b).

Data set [3] in a line: Solubility observations. The note with it: CDCl3 and acetone.
Data set [4] is described as follows: Equilibrium between di-, tri- and tetrasulfides in the presence of elemental sulfur (1H NMR). The note with it: water with elemental sulfur, 40 °C, after 15 days, no amine.
Description: To test this hypothesis, a reaction was completed in D2O with elemental sulfur, NAC disulfide, and butylamine.
To understand why the degradation leveled off, NAC trisulfide was dissolved in water, elemental sulfur was added, and the contents were heated to 40 °C.
N-Acetylcysteine disulfide (9.3 mg, 23 μmol) was dissolved in 600 μL of D2O. Elemental sulfur (6.8 mg, 0.21 mmol) and butylamine (18.5 mg, 0.25 mmol) were added, and the ^1H NMR spectra were periodically obtained to track the equilibrium.

As to `CC(=O)N[C@@H](CSSSC[C@H](NC(C)=O)C(=O)O)C(=O)O` [NAC trisulfide, N-Acetylcysteine Trisulfide], the values for the degraded in data set [1] (after 1 h), in data set [1] (after 2 h) and in data set [1] (after 1 day) were 45%, 81% and 81%, respectively. The half-life at 10 mM in data set [1] (D2O buffered to pH 7.4 with butylamine, early data points, read-out: estimated half-life (converted)) is 46.2 min. In data set [2] (all pH values tested (abstract)), the stability entry is given as “stable”. In addition, the degradation result in data set [2] (water buffered at pH 5.8, 7.4 and 9.0, after 8 days) is “no observable degradation”. The solubility result in data set [3] is “very limited solubility”. Moreover, the disulfide formed in data set [4] is listed as 12%. For the same molecule, the tetrasulfide formed in data set [4] stood at 11%.
